Experimental data taken from publication PMC4110978 (Expert opinion on drug metabolism & toxicology, 2009).

Tests used:
rat hepatocytes = assay: Metabolic clearance in 3D perfused bioreactor; settings: day 6, two experiments; probe incubated 24 h; disappearance by LC/MS/MS
human hepatocytes = assay: Metabolic clearance in 3D perfused bioreactor; settings: day 4, four experiments; probe incubated 24 h; disappearance by LC/MS/MS

With `C=CCN1CC[C@]23c4c5ccc(O)c4O[C@H]2C(=O)CC[C@@]3(O)[C@H]1C5` [Naloxone] the “Clearance values, Rat LiverChip” value (rat hepatocytes) was 39 µL per min, per million cells and the “Clearance values, Human LiverChip” value (human hepatocytes) was 29 µL per min, per million cells.
`Cc1ncc2n1-c1ccc(Cl)cc1C(c1ccccc1F)=NC2` [Midazolam] was tested, and the “Clearance values, Rat LiverChip” value (rat hepatocytes) was 38 µL per min, per million cells and the “Clearance values, Human LiverChip” value (human hepatocytes) was 13 µL per min, per million cells.
